# Data: paper PMC10113214 (Scientific Reports, 2023)
# Assays:
# dorsal skin wounds = experiment: Histological evaluation of skin samples; assay type: in vivo, BALB/c mice; conditions: Masson’s trichrome, versus RADA16-I group, Mann–Whitney U test
# Description: Mice were sacrificed on day 18 post-injury. In addition, for investigation of early wound healing, 1 mouse from each group was sacrificed on day 4 post-injury. The skin samples were collected and stored in formalin. Skin samples embedded in paraffin were cut into 5 µm sections following staining with Masson’s trichrome (green: collagen, dermis; grey or dark grey: cell nuclei, epidermis, sebaceous glands; dark red: keratinized epidermis, muscle, hair; light red: red blood cells). Image acquisitions were made with a Leica DM IL microscope. To evaluate the collagen density in dorsal skin wounds, we employed the method of colour deconvolution described by Ruifrok and Johnston[52]. Using the ImageJ software with a colour deconvolution plug-in[53], we analyzed between 7 and 9 images of dorsal skin samples stained with Masson’ trichrome, representing 2–3 mice per group. The results are presented as mean relative collagen density.
# 46BR.1N fibroblasts = experiment: LDH cytotoxicity assay, 46BR.1N; assay type: cell-based, human; conditions: 150 µg/ml, 48 h, 3 independent experiments, n = 12
# Method: Human HaCaT keratinocytes (DKFZ, Heidelberg, Germany)[47],[48], the human dermal fibroblast 46BR.1N cell line (ECACC, Sigma Aldrich Co.) and human primary dermal fibroblasts used in this study were routinely cultured in culture flasks (growth surface area: 25 cm^2) in DMEM-HG medium supplemented with 10% fetal bovine serum, 100 U/mL penicillin and […] streptomycin under standard conditions.
# Briefly, the HaCaT and 46BR.1N cells were seeded in 96-well plates at a density of 5000 per well. Cell stimulation with RADA derivatives was performed using a protocol described before[49],[50]. Both assays were performed according to the manufacturers’ instructions (XTT- Roche, Cat. No. 11465015001; LDH- Takara, Cat. No. MK401).
# Rheology of hydrogels = assay type: physicochemical; conditions: 1% hydrogel, 37 °C
# Method: Rheological parameters of the hydrogels were identified using an MCR 302 rheometer (Anton Paar GmbH, Graz, Austria). The rheometer was equipped with a CP50-1 stainless steel cone-and-plate system of 50 mm diameter, 1° cone angle and 50 µm cone truncation and a Peltier controlled temperature unit. An aliquot of 900 µL of 1% hydrogel was applied to a plate cone. The linear viscoelastic (LVE) region was determined through an amplitude sweeps: shear strain (0.01–100% at 6 rad s^−1) and shear stress (0.001–10 Pa at 6.28 rad s^−1). Frequency sweep were measured from 0.01 to 100 rad s^−1 at 2.5% strain. The frequency dependence of the storage modulus (G’) and loss modulus (G”) of the hydrogels were measured at 37 °C. All experiments were carried out in triplicate and reported as the mean of three repeats.
# [1] = molecular target: T1, Human neutrophil elastase (Homo sapiens, UniProt P08246); experiment: Elastase enzymatic cleavage; assay type: in vitro ADME; conditions: human neutrophil elastase 150 nM, peptide 1 mM, 30 min, 37 °C; for identified fragments of peptides after elastase digestion (most abundant MS signals): 300 rpm, 0.1 M Tris HCl, 500 mM NaCl, 0.05% Triton X-100, 20 mM CaCl2 pH 7.5, HPLC and MALDI or LC-MS
# T1 construct: purchased Sigma-Aldrich
# T1 sequence (P08246 30-267): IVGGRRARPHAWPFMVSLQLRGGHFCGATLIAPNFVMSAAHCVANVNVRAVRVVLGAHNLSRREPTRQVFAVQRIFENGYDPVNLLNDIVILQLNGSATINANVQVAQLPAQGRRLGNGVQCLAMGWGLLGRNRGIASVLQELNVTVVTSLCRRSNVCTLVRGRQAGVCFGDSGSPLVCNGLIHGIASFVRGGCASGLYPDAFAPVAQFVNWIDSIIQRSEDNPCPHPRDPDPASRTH
# Method: Human neutrophil elastase (EC No. 3.4.21.37, Sigma-Aldrich) was used to study peptide susceptibility to that enzyme. Peptides were dissolved in 0.1 M Tris HCl, 500 mM NaCl, 0.05% Triton X-100, 20 mM CaCl2 pH 7.5 buffer mixture. Peptides (final concentration 1 mM) were mixed with the enzyme (final concentration 150 nM) and incubated for 30 min. in a thermoshaker (37 °C, 300 rpm). The reaction was stopped by a 10% aqueous solution of TFA. The results were analyzed using HPLC and MALDI or LC–MS. Details of this experiment are described in the Supplementary Data.
structure (smiles),measurement,setting,value
"CC(=O)N[C@@H](CCCNC(=N)N)C(=O)N[C@@H](C)C(=O)N[C@@H](CC(=O)O)C(=O)N[C@@H](C)C(=O)N[C@@H](CCCNC(=N)N)C(=O)N[C@@H](C)C(=O)N[C@@H](CC(=O)O)C(=O)N[C@@H](C)C(=O)N[C@@H](CCCNC(=N)N)C(=O)N[C@@H](C)C(=O)N[C@@H](CC(=O)O)C(=O)N[C@@H](C)C(=O)N[C@@H](CCCNC(=N)N)C(=O)N[C@@H](C)C(=O)N[C@@H](CC(=O)O)C(=O)N[C@@H](C)C(=O)NCC(=O)NCC(=O)NCC(=O)N[C@@H](C)C(=O)N[C@@H](C)C(=O)N1CCC[C@H]1C(=O)N[C@H](C(=O)NCC(=O)NCC(=O)NCC(=O)N[C@@H](CCCCN)C(=O)NCC(=O)N[C@@H](Cc1c[nH]cn1)C(=O)N[C@@H](CCCCN)C(N)=O)C(C)C [RADA-KGHK, Ac-(Arg-Ala-Asp-Ala)4-Gly-Gly-Gly-Ala-Ala-Pro-Val-Gly-Gly-Gly-Lys-Gly-His-Lys-NH2]",epithelium (membrane-like structure) thickness on day 4 post-injury,dorsal skin wounds,significantly thicker epithelium
same,"cytotoxicity (LDH), slight effect",46BR.1N fibroblasts,ca. 15%
same,magnitude of G’ compared with other gels,"Rheology of hydrogels; cone-plate, frequency sweep, mean of three repeats",around one-tenth of these values
same,shear strain above which the gel behaves like a liquid (G” > G’),"Rheology of hydrogels; strain sweep, ω = 6.28 rad/s",above 25%
same,identified fragments of peptides after elastase digestion (most abundant MS signals),[1]; fragment Ac-(RADA)4-GGG-AAPV-COOH,Ac-(RADA)4-GGG-AAPV-COOH
same,identified fragments of peptides after elastase digestion (most abundant MS signals),[1]; fragment NH2-APV-GGG-KGHK-NH2,NH2-APV-GGG-KGHK-NH2
same,identified fragments of peptides after elastase digestion (most abundant MS signals),[1]; fragment NH2-PV-GGG-KGHK-NH2,NH2-PV-GGG-KGHK-NH2
same,main / predominant fragments of elastase digestion,"[1]; pH 7.5 buffer, HPLC, mass spectrometry",Ala^21Pro^22Val^23Gly^24Gly^25Gly^26Lys^27Gly^28His^29Lys^30
